For data set [1], the system named is avian CoV-IBV. It counts as cell-based. The conditions noted are these: IBV titration in infected Vero cells, qRT-PCR, 3 days post-infection.
Data set [2] concerns avian CoV-IBV. In words: microbe, parasite or virus in culture. The format is cell-based. The conditions noted are these: for Virucidal Activity Inhibition (%): 2 h incubation with virus at 37 °C, qRT-PCR.
Data set [3] is described as follows: MTT cytotoxicity assay on uninfected Vero cells. The format is cell-based. The conditions noted are these: African green monkey, uninfected Vero cells (CCL-81), 3 days at 37 °C, read-out: CC50 (half-maximum cytotoxic concentration). As for the experimental part:
Vero cells (CCL-81, American Type Culture Collection, Boston, MA, USA), used as a cellular model for antiviral bioassay, were cultured in Dulbecco’s modified Eagle’s medium (DMEM), supplemented with 10% fetal bovine serum (FBS) and gentamycin, and incubated at 37 °C with 5% CO2. They were used to adapt the avian Massachusetts serotype CoV-IBV strain.
Cell viability was evaluated using the MTT (3-(4,5-dimethylthiazol-2-yl)-2,5-diphe- nyltetrazolium bromide) method. The MTT assay is sensitive and reliable for cellular metabolic activity. It is based on the ability of nicotinamide adenine dinucleotide phosphate (NADPH)-dependent cellular oxidoreductase enzyme to reduce the tetrazolium dye to the purple formazan crystals. Sub-confluent Vero cells, seeded in 96-well microplates (2 × 10^6 cells/microplate; Thermo Fisher Scientific), were incubated with serial dilutions of synthesized molecules, in duplicates for 3 days at 37 °C. MTT solution (500 μg/mL) was then added, and the cells were incubated for further 4 h. The formed formazan crystals within metabolically viable cells were then dissolved in 100 µL of DMSO, and the absorption, proportional to viable cell number, was measured at 490 nm with a Thermo Scientific Multiskan FC. The results were expressed as a percentage of viable cells relative to the negative control (untreated cells cultured in standard medium and considered 100% viable). The half-maximum cytotoxic concentration (CC50), which was defined as the concentration which reduced the OD490 of the 1,3,4-oxadiazole-derived α-aminophosphonates/α-aminophosphonic acids-treated cells to 50% of that of untreated cells, were determined from the plotted curve of percentages of viable cells against compound concentrations.

The test system of data set [4] is IBV Beaudette strain. The arrangement: method as in PMID 17479370. The conditions noted are these: 5 to 50 mM; cited from earlier work.
Data set [5] deals with IBV. On the set-up: method as in PMID 17479370. The conditions noted are these: dose-dependent, without virucidal effect; cited from earlier work.
The mark [6] stands for this setting: Avian coronavirus, 2 h, read-out: Virucidal Activity Inhibition (%).

The values below come from paper PMC9867332 (Pharmaceutics, 2022).

Where two headings read alike, the source gives them in different places.

Take `CCOP(=O)(OCC)C(Nc1nnc(-c2ccccc2)o1)c1ccc([N+](=O)[O-])cc1` (stereo not shown) [5b, diethyl[(5-phenyl-1,3,4-oxadiazol-2-ylamino) (4-nitrophenyl)methyl]phosphonate]: the “Antiviral Activity” value in data set [1] (33 µM) is reported as “Not active”. The inhibition at 33 µM in data set [2] (setting [6]) was found to be 35 ± 0.53%. In addition, in data set [3], the CC50 at 3 days worked out at 1599 ± 4.73 µM.

In the case of `CCOP(=O)(OCC)C(Nc1nnc(-c2ccccc2)o1)c1ccc(F)cc1` (stereo not shown) [5c, diethyl[(5-phenyl-1,3,4-oxadiazol-2-ylamino)(4-fluorophenyl)methyl]phosphonate], the “Antiviral Activity” value in data set [1] (3.66 µM) is recorded as “Not active”. The inhibition at 3.66 µM in data set [2] (setting [6]) came out at 46 ± 1.49%. In data set [3], the CC50 at 3 days is around 550 µM.

Molecule `CCOP(=O)(OCC)C(Nc1nnc(-c2ccccc2)o1)c1ccc(OC(F)(F)F)cc1` (stereo not shown) [5f, diethyl[(5-phenyl-1,3,4-oxadiazol-2-ylamino)(4-trifluoromethoxyphenyl)methyl]phosphonate] came in with a melting point of 106.6 to 107.5 °C. In addition, in data set [1] (33 µM), the “Antiviral Activity” value is “Not active”. In data set [2] (33 µM), the “Virucidal Activity Inhibition (%)” value is “strongly inhibited the IBV infectivity”. Also, the inhibition at 33 µM in data set [2] (setting [6]) was 86.1 ± 1.58%.

With `O=P(O)(O)C(Nc1nnc(-c2ccccc2)o1)c1ccc(C(F)(F)F)cc1` (stereo not shown) [6a, [(5-phenyl-1,3,4-oxadiazol-2-ylamino)(4-trifluoromethylphenyl)methyl] phosphonic acid], the melting point is above 260 °C. Moreover, the “Antiviral Activity” value in data set [1] (1.23 µM) was “Not active”. In data set [2] (1.23 µM), the “Virucidal Activity Inhibition (%)” value was “strongly inhibited the IBV infectivity”. In addition, the inhibition at 1.23 µM in data set [2] (setting [6]) amounted to 75 ± 0.75%. The CC50 at 3 days in data set [3] is around 550 µM.

Turning to `O=[N+]([O-])c1ccc(C(Nc2nnc(-c3ccccc3)o2)P(=O)(O)O)cc1` (stereo not shown) [6b, [(5-Phenyl-1,3,4-oxadiazol-2-ylamino)(4-nitrophenyl)methyl]phosphonic acid], the “Antiviral Activity” value in data set [1] (3.66 µM) is given as “Not active”. For the same molecule, in data set [2] (setting [6]), the inhibition at 3.66 µM is 31.4 ± 2.4%. Moreover, the CC50 at 3 days in data set [3] is around 550 µM.

For `O=P(O)(O)C(Nc1nnc(-c2ccccc2)o1)c1ccc(F)cc1` (stereo not shown) [6c, [(5-Phenyl-1,3,4-oxadiazol-2-ylamino)(4-fluorophenyl)methyl]phosphonic acid], the “Antiviral Activity” value in data set [1] (33 µM) is on record as “Not active”. The inhibition at 33 µM in data set [2] (setting [6]) was determined as 59.6 ± 1.34%.

For `O=P(O)(O)C(Nc1nnc(-c2ccccc2)o1)c1cc(F)c(F)c(F)c1` (stereo not shown) [6d, [(5-Phenyl-1,3,4-oxadiazol-2-ylamino)(3,4,5-trifluophenyl)methyl]phosphonic acid], the “Antiviral Activity” value in data set [1] (3.66 µM) is “Not active”. The inhibition at 3.66 µM in data set [2] (setting [6]) was determined as 25 ± 1.15%. The CC50 at 3 days in data set [3] was around 550 µM.

As to `O=P(O)(O)C(Nc1nnc(-c2ccccc2)o1)c1cc(C(F)(F)F)cc(C(F)(F)F)c1` (stereo not shown) [6e, [(5-Phenyl-1,3,4-oxadiazol-2-ylamino)(3,5-bis-trifuoromethyl-phenyl)methyl] phosphonic acid], in data set [1] (33 µM), the “Antiviral Activity” value is “Not active”. In addition, in data set [2] (setting [6]), the inhibition at 33 µM stood at 22.7 ± 3.25%. For the same molecule, the CC50 at 3 days in data set [3] was around 550 µM.

For the molecule `[Cl-].[Li+]` [LiCl, lithium chloride], the “virucidal activity (virus titre after incubation)” value in data set [4] is “did not modify the title of the virus”. The “replication of IBV in Vero cells” value in data set [5] is “suppress the replication of IBV in Vero cells in a dose-dependent manner”.
